Assays:
G9a (h) = biological target: T1, G9a (h) (Homo sapiens, UniProt Q96KQ7); assay: Epigenetic enzyme assay, Methyltransferases (MTs); format: biochemical
T1 sequence (Q96KQ7 1-1210): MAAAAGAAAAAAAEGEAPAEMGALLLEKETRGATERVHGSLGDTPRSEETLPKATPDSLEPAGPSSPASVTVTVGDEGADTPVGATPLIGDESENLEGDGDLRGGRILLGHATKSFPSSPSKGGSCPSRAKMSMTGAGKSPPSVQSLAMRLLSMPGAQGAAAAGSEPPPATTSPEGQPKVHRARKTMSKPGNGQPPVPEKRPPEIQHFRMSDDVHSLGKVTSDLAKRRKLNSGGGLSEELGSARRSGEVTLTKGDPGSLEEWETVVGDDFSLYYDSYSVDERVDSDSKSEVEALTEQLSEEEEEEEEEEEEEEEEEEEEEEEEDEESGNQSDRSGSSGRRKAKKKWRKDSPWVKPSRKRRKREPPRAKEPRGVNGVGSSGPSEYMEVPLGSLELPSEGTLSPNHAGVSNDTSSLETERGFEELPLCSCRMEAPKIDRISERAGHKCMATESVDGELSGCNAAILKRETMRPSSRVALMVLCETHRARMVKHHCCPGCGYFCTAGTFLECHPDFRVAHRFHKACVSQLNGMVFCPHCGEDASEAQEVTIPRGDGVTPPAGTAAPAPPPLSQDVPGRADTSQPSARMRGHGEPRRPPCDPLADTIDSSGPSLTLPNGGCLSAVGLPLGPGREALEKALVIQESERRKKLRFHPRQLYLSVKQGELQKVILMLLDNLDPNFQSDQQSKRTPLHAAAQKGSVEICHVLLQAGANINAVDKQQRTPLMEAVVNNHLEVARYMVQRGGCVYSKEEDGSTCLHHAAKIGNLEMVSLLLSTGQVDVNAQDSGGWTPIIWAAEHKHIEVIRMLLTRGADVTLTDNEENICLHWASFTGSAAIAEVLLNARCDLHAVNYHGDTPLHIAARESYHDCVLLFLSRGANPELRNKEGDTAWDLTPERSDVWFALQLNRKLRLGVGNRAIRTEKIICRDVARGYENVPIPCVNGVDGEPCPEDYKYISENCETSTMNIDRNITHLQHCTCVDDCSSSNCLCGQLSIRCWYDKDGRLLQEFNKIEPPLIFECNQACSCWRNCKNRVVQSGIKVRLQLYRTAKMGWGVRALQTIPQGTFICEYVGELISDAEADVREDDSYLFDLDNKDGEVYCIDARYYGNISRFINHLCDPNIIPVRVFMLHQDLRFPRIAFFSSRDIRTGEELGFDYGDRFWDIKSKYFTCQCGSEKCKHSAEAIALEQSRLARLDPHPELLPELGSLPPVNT

MLL2(h) complex = assay: Epigenetic enzyme assay, Methyltransferases (MTs); format: biochemical, human; conditions: 10 μM
PRMT5 complex (h) = PRMT5 complex (h) (Homo sapiens, UniProt O14744); assay: Epigenetic enzyme assay, Methyltransferases (MTs); format: biochemical; conditions: read-out: % Inhibition of Control Values
[1] = biological target: T2, Glycine N-methyltransferase (h) (Homo sapiens, UniProt Q14749); assay: Epigenetic enzyme assay, Small molecule methyltransferases; format: biochemical; conditions: read-out: % Inhibition of Control Values
T2 sequence (Q14749 1-295): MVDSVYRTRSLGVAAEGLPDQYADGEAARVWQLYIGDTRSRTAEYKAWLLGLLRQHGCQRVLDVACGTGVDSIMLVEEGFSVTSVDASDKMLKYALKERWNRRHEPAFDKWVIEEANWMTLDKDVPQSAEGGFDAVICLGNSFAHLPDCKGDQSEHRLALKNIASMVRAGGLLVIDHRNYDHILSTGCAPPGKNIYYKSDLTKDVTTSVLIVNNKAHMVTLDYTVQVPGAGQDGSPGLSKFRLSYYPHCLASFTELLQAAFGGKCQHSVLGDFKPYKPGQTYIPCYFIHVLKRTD

Chemokine CCR1 = biological target: T3, Chemokine CCR1 (Homo sapiens, UniProt P32246); assay: Chemokine CCR1 radio ligand binding; conditions: assay year 2015, read-out: % Control Response
T3 construct: expressed in transfected cells; host or cells: Chem-2 cells
T3 sequence (P32246 1-355): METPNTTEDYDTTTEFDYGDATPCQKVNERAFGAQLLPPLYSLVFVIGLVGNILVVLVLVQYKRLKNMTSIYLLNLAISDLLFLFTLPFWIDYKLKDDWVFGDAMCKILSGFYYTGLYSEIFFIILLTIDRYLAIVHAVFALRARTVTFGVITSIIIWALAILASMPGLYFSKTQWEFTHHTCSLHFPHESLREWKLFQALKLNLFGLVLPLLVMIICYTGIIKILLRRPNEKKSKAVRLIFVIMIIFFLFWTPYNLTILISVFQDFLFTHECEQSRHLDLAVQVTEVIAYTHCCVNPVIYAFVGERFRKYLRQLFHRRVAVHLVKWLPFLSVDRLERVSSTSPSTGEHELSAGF
Description: (§1) The in vitro pharmacological studies were conducted by Eurofins PanLab (Taiwan) using the parameters shown in Table 13 with respect to appropriate literature references.

[2] = system: Catechol-O-Methyl Transferase (COMT); assay: Catechol-O-Methyl Transferase (COMT); format: biochemical, Porcine; conditions: 10 μM; assay year 2015
Description: as §1

[3] = system: 43 cancer cell lines and one normal cell line; assay: In vitro cell viability assay (intracellular ATP, 72 hour); format: cell-based; conditions: 10 μM

Sequence of PRMT5 complex (h) (O14744 whole entry): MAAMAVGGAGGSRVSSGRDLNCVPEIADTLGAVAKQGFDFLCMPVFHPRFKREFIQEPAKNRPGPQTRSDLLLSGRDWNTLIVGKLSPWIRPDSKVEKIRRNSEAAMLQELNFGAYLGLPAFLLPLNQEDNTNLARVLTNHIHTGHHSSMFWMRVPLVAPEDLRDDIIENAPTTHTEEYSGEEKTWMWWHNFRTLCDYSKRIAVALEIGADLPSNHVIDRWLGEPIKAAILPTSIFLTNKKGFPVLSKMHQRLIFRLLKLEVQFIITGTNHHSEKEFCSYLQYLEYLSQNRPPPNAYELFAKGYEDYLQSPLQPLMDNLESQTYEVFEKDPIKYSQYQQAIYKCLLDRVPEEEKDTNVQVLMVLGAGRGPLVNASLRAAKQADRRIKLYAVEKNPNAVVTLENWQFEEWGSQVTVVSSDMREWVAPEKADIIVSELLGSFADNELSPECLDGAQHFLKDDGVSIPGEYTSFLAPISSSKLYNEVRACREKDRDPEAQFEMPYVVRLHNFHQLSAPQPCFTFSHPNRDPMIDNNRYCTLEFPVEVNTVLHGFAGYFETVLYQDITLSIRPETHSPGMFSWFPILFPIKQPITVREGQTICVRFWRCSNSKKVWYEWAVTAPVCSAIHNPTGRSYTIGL
Sequence of PRMT5 complex (h) (Q9BQA1 whole entry partner): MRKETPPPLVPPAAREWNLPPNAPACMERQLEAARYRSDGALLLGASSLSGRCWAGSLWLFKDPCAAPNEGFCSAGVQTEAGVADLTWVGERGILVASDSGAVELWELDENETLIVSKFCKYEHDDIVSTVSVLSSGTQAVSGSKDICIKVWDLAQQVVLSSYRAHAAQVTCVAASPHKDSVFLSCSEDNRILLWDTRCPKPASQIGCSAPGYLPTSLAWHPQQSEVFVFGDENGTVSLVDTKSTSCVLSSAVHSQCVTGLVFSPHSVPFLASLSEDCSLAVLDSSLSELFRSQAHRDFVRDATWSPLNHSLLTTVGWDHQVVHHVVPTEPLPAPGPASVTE

For `CC(C)=CCC[C@H](CO)[C@@H]1CC[C@@H](C)c2c1cc(C)c(O)c2O` [Compound 1, 7,8,18-trihydroxyserrulat-14-ene], the “% Inhibition of Control Values” (G9a (h); 10 μM) was “strong inhibitor”, the inhibition at 10 µM (G9a (h); 10 μM, read-out: % Inhibition of Control Values) was 86% and the IC50 (G9a (h); Table 11, inhibition/concentration-response curve) was 11 µM. For the same compound, the “% Inhibition of Control Values” (MLL2(h) complex) was 6%, the inhibition at 10 µM (PRMT5 complex (h)) was 8% and the inhibition at 10 µM [1] was 55%. For the same compound, the remaining activity at 10 µM (Chemokine CCR1) was 33%, the “% Control Response” value [2] was 0% and the “reduction in cell viability” value ([3]; 12 cancer cell lines with moderate reduction) was −40 to −80%. The “reduction in cell viability” value ([3]; cancer cell lines with potent reduction) was −80 to −100%, the “% Cell growth” value ([3]; 4T1 (Breast Cancer)) was 52% and the “% Cell growth” value ([3]; A375 (Skin)) was −5%. The “% Cell growth” value ([3]; A549/ATCC (Non-Small Cell Lung Cancer)) was −92%, the “% Cell growth” value ([3]; A-431 (Skin)) was −89% and the “% Cell growth” value ([3]; A-498 (Kidney Cancer)) was −43%. For the same compound, the “% Cell growth” value ([3]; ACHN (Kidney Cancer)) was −41%, the “% Cell growth” value ([3]; B16-F0 (Melanoma)) was 7% and the “% Cell growth” value ([3]; BT474 (Breast Cancer)) was −67%. The “% Cell growth” value ([3]; CT26.WT (Colon Cancer)) was 2%, the “% Cell growth” value ([3]; DLD-1 (Colon Cancer)) was −65% and the “% Cell growth” value ([3]; H33HJ-JA1 (Lymphoma)) was −90%. For the same compound, the “% Cell growth” value ([3]; HC-4 (Liver Cancer)) was −91%, the “% Cell growth” value ([3]; HCT-15 (Colon Cancer)) was −62% and the “% Cell growth” value ([3]; HCT-116 (Colon Cancer)) was −74%. The “% Cell growth” value ([3]; HT-29 (Colon Cancer)) was −66%, the “% Cell growth” value ([3]; Hep3B (Liver Cancer)) was −84% and the “% Cell growth” value ([3]; HepG2 (Liver Cancer)) was −23%. The “% Cell growth” value ([3]; K-562 (Leukemia)) was −55%, the “% Cell growth” value ([3]; KATO III (Stomach)) was −91% and the “% Cell growth” value ([3]; LL/2 (Non-Small Cell Lung Cancer)) was −62%. For the same compound, the “% Cell growth” value ([3]; LNCaP (Prostrate Cancer)) was −86%, the “% Cell growth” value ([3]; MCF7 (Breast Cancer)) was −71% and the “% Cell growth” value ([3]; MCF-7 AdrR (Breast Cancer)) was −90%. For the same compound, the “% Cell growth” value ([3]; MDA-MB-231 (Breast Cancer)) was −92%, the “% Cell growth” value ([3]; MDA-MB-468 (Breast Cancer)) was −92% and the “% Cell growth” value ([3]; MES-SA (Uterus)) was −88%. For the same compound, the “% Cell growth” value ([3]; MIA PaCa-2 (Pancreas)) was 3%, the “% Cell growth” value ([3]; MOLT-4 (Leukemia)) was −94% and the “% Cell growth” value ([3]; MV-411 (Leukemia)) was −96%. The “% Cell growth” value ([3]; NCI-H460 (Non-Small Cell Lung Cancer)) was −37%, the “% Cell growth” value ([3]; OVCAR-3 (Ovarian Cancer)) was −93% and the “% Cell growth” value ([3]; PANC-1 (Pancreas)) was 36%. The “% Cell growth” value ([3]; PC-3 (Prostrate Cancer)) was 70%, the “% Cell growth” value ([3]; PC-6 (Non-Small Cell Lung Cancer)) was −62% and the “% Cell growth” value ([3]; Ramos (Lymphoma)) was −92%. The “% Cell growth” value ([3]; SK-MEL-5 (Melanoma)) was −96%, the “% Cell growth” value ([3]; SK-N-MC (Brain)) was −87% and the “% Cell growth” value ([3]; SK-OV-3 (Ovarian Cancer)) was −35%. The “% Cell growth” value ([3]; SW-620 (Colon Cancer)) was −89%, the “% Cell growth” value ([3]; T-47D (Breast Cancer)) was 20% and the “% Cell growth” value ([3]; U937 (Lymphoma)) was −86%. For the same compound, the “% Cell growth” value ([3]; U-87 MG (Brain)) was 7%.

From patent publication US11331299B2, “Medicinal use of serrulatane diterpenes” (The University of Sydney, priority 2016, dated 2022)
